Assay [1] relates to methicillin-resistant strains of S. aureus (MRSA-2). The experiment in a line: Antimicrobial activity, serial dilution (MIC/MBC), MRSA-2. Type of assay: cell-based. The conditions noted are these: Staphylococcus aureus. How it is done: The antimicrobial activity of the test compounds was determined by the serial dilution technique in Muller Hinton Broth 2 and in Sabouradu broth for fungi. The cultures used for testing included Gram-positive bacteria: Staphylococcus aureus ATCC 6538P FDA 209P, Bacillus cereus ATCC 10702 NCTC 8035, Enterococcus faecalis ATCC 29212; Gram-negative bacteria: Escherichia coli ATCC 25922, Pseudomonas aeruginosa ATCC 9027, and fungi: Trichophyton mentagrophytes var. gypseum 1773, and Candida albicans ATCC 10231; methicillin-resistant strains of S. aureus (MRSA) was obtained from hospital patients with chronic tonsillitis in the Republican Clinical Hospital (Kazan, Russia). The bacterial load was 3.0 × 10^5 cfu/ml. The fungi load was 2.0 × 10^3 cfu/ml. The results were recorded every 24 h for 5-7 days. Cultures were incubated at 37 °C. The experiment was repeated three times. […] The minimum inhibitory concentration (MIC) was defined as the minimum concentration of a compound that inhibits the growth of the corresponding test microorganism. The growth of bacteria, as well as the absence of the growth due to the bacteriostatic action of compounds, were recorded.
Synthesized compounds were further evaluated for antimicrobial activity against test microorganisms: Staphylococcus aureus ATCC 209p (Sa), Bacillus cereus ATCC 8035 (Bc), Escherichia coli CDC F-50 (Ec), Enterococcus faecalis (Ef), Pseudomonas aeruginosa ATCC 9027, Aspergillus niger BKMF-1119, Trichophyton mentagrophytes var. gypseum 1773, and Candida albicans 855-653 including methicillin-resistant strains of S. aureus (MRSA 1 and MRSA 2). The minimum inhibitory (MIC) and minimum bactericidal (MBC) concentrations of ammonium salts were determined against these pathogens (Table 1). Due to the lack of activity of compounds 3a-g against Gram-negative bacterial strains and some fungi, the corresponding data are not shown.

In assay [2] the test system is MRSA-1 and MRSA-2 compared to erythrocytes and hepatocytes. The experiment in a line: Selectivity index (HC50 or IC50 / MIC). Set-up: species or system Staphylococcus aureus. To be noted: resistant strains MRSA-1 and MRSA-2 compared to erythrocytes and hepatocytes. How it is done:
The selectivity of compounds for microbial cells is an important criterion for assessing the cytotoxic effect. This indicator is characterized by the value of the selectivity index (SI), which for the leading compounds 3b, 3c, and 3d was calculated as the ratio between the HC50 value for erythrocytes (IC50 for eukaryotic cells) and the MIC value for bacterial cells (Fig. 4). […] Its selectivity index was 3–8 times higher than that of compounds 3b and 3c.

The MBC is the smallest concentration meeting the test's criterion for killing. Lower therefore signals more potent killing. One may read the MIC as the lowest concentration that inhibits growth of the organism. High values mean a less susceptible organism, low ones a more susceptible organism. In assay [1], `CC[N+](CC)(CC)CC(=O)N/N=C1\C(=O)N(Cc2cc(C(C)(C)C)c(O)c(C(C)(C)C)c2)c2c1ccc(C)c2C` [Compound 3d, 2-(2-(1-(3,5-Di-tert-butyl-4-hydroxybenzyl)-6,7-dimethyl-2-oxoindolin-3-ylidene)hydrazinyl)-N,N,N-triethyl-2-oxoethanammonium bromide] gave an MBC of 49.6 µM and an MIC of 6.2 ± 0.5 µM. The “selectivity index, times higher than that of compounds 3b and 3c” value in assay [2] was 3–8 times.

As for `CCc1cccc2c1N(Cc1cc(C(C)(C)C)c(O)c(C(C)(C)C)c1)C(=O)/C2=N\NC(=O)C[N+](CC)(CC)CC` [Compound 3c, 2-(2-(1-(3,5-Di-tert-butyl-4-hydroxybenzyl)-7-ethyl-2-oxoindolin-3-ylidene)hydrazinyl)-N,N,N-triethyl-2-oxoethanammonium bromide], in assay [1], the MBC is 99.3 µM and the MIC worked out at 24.8 ± 2.2 µM.

Values taken from publication PMC8957246, “Synthesis and diverse biological activity profile of triethylammonium isatin-3-hydrazones” (ADMET & DMPK, 2022).
